Laboratory results: US12590966B2, “Method for treating cancer” (THE CHILDREN'S MEDICAL CENTER CORPORATION, priority 2019, dated 2026)

B1: Wnt3A: positive control that triggers sequestration of GSK3 inside membrane-bound multivesicular endosomes (protein, UniProt P56704 19-352, looked up)
Protein Wnt-3a: SYPIWWSLAVGPQYSSLGSQPILCASIPGLVPKQLRFCRNYVEIMPSVAEGIKIGIQECQHQFRGRRWNCTTVHDSLAIFGPVLDKATRESAFVHAIASAGVAFAVTRSCAEGTAAICGCSSRHQGSPGKGWKWGGCSEDIEFGGMVSREFADARENRPDARSAMNRHNNEAGRQAIASHMHLKCKCHGLSGSCEVKTCWWSQPDFRAIGDFLKDKYDSASEMVVEKHRESRGWVETLRPRYTYFKVPTERDLVYYEASPNFCEPNPETGSFGTRDRTCNVSSHGIDGCDLLCCGRGHNARAERRREKCRCVFHWCCYVSCQECTRVYDVHTCK

Key:
[1] = test system: normal human CD34+ hematopoietic progenitors; test: Survival under essential amino acid starvation; assay type: cell-based
Jurkat T-ALL cells = test: Co-localization of K48-linked ubiquitin with GSK3α bodies by immunofluorescence; assay type: cell-based, human; settings: combination with asparaginase
Protocol: (FIG. 6A) Jurkat T-ALL cells were treated with vehicle, asparaginase, the GSK3α inhibitor BRD0705, or the combination of asparaginase and BRD0705 (combo). Immunofluorescence microscopy was then performed for GSK3α, K48-linked ubiquitin chains (which mark proteins for proteasomal degradation), or the nuclear marker DAPI. […] (FIG. 6B) Quantification of the immunofluorescence in 50 cells from each condition. Coloc refers to co-localization of both GSK3α and ubiquitin (ub), as determined by yellow color on the merged confocal image. ****, p<0.0001. ns (not significant), p>0.05.

[2] = test system: CCD841 cells derived from normal human intestinal epithelium; test: Survival under essential amino acid starvation; assay type: cell-based
Jurkat cells [3] = test system: Jurkat cells
Description: It was then sought to determine whether GSK3α promotes survival in response to starvation of these amino acids. […] It was then asked whether GSK3α promotes the survival of normal cells in response to essential amino acid starvation, using normal human CD34+ hematopoietic progenitors or CCD841 cells derived from normal human intestinal epithelium (38).

Jurkat cells [4] = test: GSK3α body (puncta) formation by confocal immunofluorescence microscopy; assay type: cell-based, human; settings: for Formation of GSK3α puncta on addition of amino acid: asparagine depleted cell
Protocol: (§1) FIGS. 4A-4D show asparagine starvation induces phase separation of GSK3α into cytoplasmic bodies (or puncta), but not GSK3b. (FIG. 4A) Confocal immunofluorescence microscopy for GSK3α or the nuclear marker DAPI, in Jurkat cells treated with vehicle or asparaginase (100 U/L) for 48 hours. (FIG. 4B) Confocal immunofluorescence microscopy for GSK3β or the nuclear marker DAPI, in Jurkat cells treated with vehicle or asparaginase (100 U/L) for 48 hours. (FIG. 4C) Number of puncta per 50 cells. (FIG. 4D) Formation of GSK3α bodies is selective to asparaginase, and is not induced by other cellular stressors such as other chemotherapeutics or heat shock. ****, p<0.0001. ns (not significant), p>0.05.
FIGS. 6A and 6B show GSK3α bodies function in the protein ubiquitination-proteasomal degradation pathway in response to asparagine starvation. (FIG. 6A) Jurkat T-ALL cells were treated with vehicle, asparaginase, the GSK3α inhibitor BRD0705, or the combination of asparaginase and BRD0705 (combo). Immunofluorescence microscopy was then performed for GSK3α, K48-linked ubiquitin chains (which mark proteins for proteasomal degradation), or the nuclear marker DAPI. Note that GSK3a can still undergo translocation into GSK3a bodies even if its enzymatic activity is inhibited, but the ability of GSK3a bodies to ubiquitinate proteins is completely dependent on the enzymatic activity of GSK3α. (FIG. 6B) Quantification of the immunofluorescence in 50 cells from each condition. Coloc refers to co-localization of both GSK3α and ubiquitin (ub), as determined by yellow color on the merged confocal image. ****, p<0.0001. ns (not significant), p>0.05.
(§2) To test whether GSK3α undergoes spatial sequestration in response to asparaginase, we applied immunofluorescence using paralog-selective antibodies (FIG. S4).

Jurkat cells [5] = test: Proteinase K protection assay of GSK3α; assay type: cell-based, human; settings: Jurkat cells permeabilized with digitonin, Western blot
Protocol: Jurkat cells were treated with vehicle, asparaginase (×48 hrs) to induce formation of GSK3α bodies, or Wnt3A to induce GSK3 sequestration in membrane-bound multivesicular bodies (Taelman et al., 2010). Cells were permeabilized, and treated with vehicle or proteinase K to digest free cytoplasmic proteins. Triton is a control that dissolves all membranes.
It was then determined whether GSK3α bodies are membraneless using the proteinase K protection assay. Jurkat cells were treated with vehicle or asparaginase to trigger GSK3α body formation. As a positive control, treatment with Wnt3A was included, which triggers sequestration of GSK3 inside membrane-bound multivesicular endosomes (19). Following cytoplasmic membrane permeabilization with digitonin, cells were treated with proteinase K, and GSK3α protein levels were assessed by Western blot analysis. […] These findings indicate that GSK3α bodies are membraneless.

Jurkat cells [6] = test: GSK3β localization by confocal immunofluorescence microscopy; assay type: cell-based, human; settings: asparaginase 100 U/L for 48 hours
Protocol: as §1, §2

Row | Molecule | Survival under essential amino acid starvation [1] | Survival under essential amino acid starvation [2] | Formation of GSK3α puncta on addition of amino acid (Jurkat cells [4]) | Accessibility of GSK3α to proteinase K digestion (Jurkat cells [5]) | further results
1 | CC[C@@]1(c2ccccc2)C2=C(CC(C)(C)CC2=O)Nc2[nH]ncc21 [BRD0705] | impaired survival | impaired survival | – | – | Accumulation of ubiquitin in GSK3α bodies (Jurkat T-ALL cells): did prevent accumulation of ubiquitin in GSK3α bodies; Viability in leucine-deficient medium (Jurkat cells [3]; leucine-deficient medium): impaired viability; Viability in valine-deficient medium (Jurkat cells [3]; valine-deficient medium): impaired viability; Effect on GSK3α biomolecular condensation in response to asparaginase (Jurkat cells [4]; Jurkat T-ALL cells, combination with asparaginase): did not block the ability of GSK3α to undergo biomolecular condensation
2 | CC[C@]1(c2ccccc2)C2=C(CC(C)(C)CC2=O)Nc2[nH]ncc21 [BRD5648] | had no effect | had no effect | – | – | –
3 | NC(=O)C[C@H](N)C(=O)O [L-Asn, asparagine] | – | – | inhibits the formation of GSK3α puncta | – | –
4 | NC(=O)CC[C@H](N)C(=O)O [L-Glut, glutamine] | – | – | does not | – | –
5 | asparaginase | – | – | – | remained accessible to proteinase K digestion | GSK3β localization after treatment (Jurkat cells [6]): remained broadly distributed regardless of asparaginase therapy; GSK3α body formation (condensation into cytoplasmic puncta) induced by treatment (Jurkat cells [4]; Jurkat cells, asparaginase 100 U/L for 48 hours): triggered its condensation into distinct cytoplasmic puncta
6 | B1 | – | – | – | protected from protease digestion | –
